{
  "source": "paper PMC7470033",
  "about": "“In vitro inhibitory effect of lysionotin on the activity of cytochrome P450 enzymes” (Pharmaceutical Biology, 2020)",
  "format_in_all_cases": "in vitro ADME",
  "key": {"CYP3A4": {"target": "T1, CYP3A4 (Homo sapiens, UniProt P08684)", "T1 construct": "Pooled HLMs were purchased from BD Biosciences Discovery Labware; tissue BD Biosciences Discovery Labware; host or cells: pooled human liver microsomes", "T1 sequence (P08684 whole entry, canonical isoform)": "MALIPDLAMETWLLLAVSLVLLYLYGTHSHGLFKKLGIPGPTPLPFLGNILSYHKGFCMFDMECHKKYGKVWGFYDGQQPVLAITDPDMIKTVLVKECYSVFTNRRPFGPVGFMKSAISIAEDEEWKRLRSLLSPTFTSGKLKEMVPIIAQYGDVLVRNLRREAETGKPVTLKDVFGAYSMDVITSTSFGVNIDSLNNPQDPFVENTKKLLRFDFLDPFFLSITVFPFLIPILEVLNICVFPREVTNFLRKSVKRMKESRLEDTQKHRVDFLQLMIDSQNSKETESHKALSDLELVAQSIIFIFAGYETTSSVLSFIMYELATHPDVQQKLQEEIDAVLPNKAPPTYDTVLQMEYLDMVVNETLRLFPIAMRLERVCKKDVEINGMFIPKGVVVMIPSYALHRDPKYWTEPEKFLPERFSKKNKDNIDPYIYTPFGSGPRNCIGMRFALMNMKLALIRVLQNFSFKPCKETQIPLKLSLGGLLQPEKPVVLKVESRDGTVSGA", "test": "CYP3A4 inhibition in pooled human liver microsomes (testosterone 6β-hydroxylation)", "experimental": "(§1) In this study, lysionotin was incubated with eight CYP isoforms (i.e., 1A2, 3A4, 2A6, 2E1, 2D6, 2C9, 2C19 and 2C8) in pooled human liver microsomes to investigate the interaction between lysionotin and CYPs, which can provide direct evidence for the effect of lysionotin on the activity of CYPs. In vitro, phenacetin (CYP1A2), testosterone (CYP3A4), coumarin (CYP2A6), chlorzoxazone (CYP2E1), dextromethorphan (CYP2D6), diclofenac (CYP2C9), S-mephenytoin (CYP2C19) and paclitaxel (CYP2C8) were used as probe substrates to determine the effects of lysionotin on eight CYP enzymes. In addition, enzyme kinetic studies were conducted to determine the inhibition model of lysionotin on CYP enzymes.\n(§2) All incubations were performed in triplicate, and the mean values were utilised. The typical incubation systems contained 100 mM potassium phosphate buffer (pH 7.4), NADPH generating system (1 mM NADP^+, 10 mM glucose-6-phosphate, 1 U/mL of glucose-6-phosphate dehydrogenase, and 4 mM MgCl2), the appropriate concentration of HLMs, a corresponding probe substrate and lysionotin (or positive inhibitor for different probe reactions) in a final volume of 200 μL.\nThe concentration of lysionotin was 100 μM, and the positive inhibitor concentrations were as follows: 10 μM furafylline for CYP1A2, 1 μM ketoconazole for CYP3A4, 10 μM tranylcypromine for CYP2A6, 50 μM clomethiazole for CYP2E1, 10 μM quinidine for CYP2D6, 10 μM sulfaphenazole for CYP2C9, 50 μM tranylcypromine for CYP2C19, 5 μM montelukast for CYP2C8. […] The instrument used in this study was Agilent 1260 series instrument with DAD and FLD detector, and the quantitative assay for the corresponding metabolites was performed as previously reported and the detection conditions are summarised in Table 2 (He et al. [2015]; Lang et al. [2017]; Zhang et al. [2017]). […]\n(§3) The enzyme kinetic parameters for the probe reaction were estimated from the best fit line, using least-squares linear regression of the inverse substrate concentration versus the inverse velocity (Lineweaver-Burk plots), and the mean values were used to calculate Vmax and Km. Inhibition data from the experiments that were conducted using multiple compound concentrations were represented by Dixon plots, and inhibition constant (Ki) values were calculated using non-linear regression according to the following equation: v=(VmaxS)/(Km(1+I/Ki+S)for competitive inhibition v=(VmaxS)/[(Km+S((1+I/Ki)] for non-competitive inhibition where I is the concentration of the compound, Ki is the inhibition constant, S is the concentration of the substrate, and Km is the substrate concentration at half the maximum velocity (Vmax) of the reaction. The mechanism of the inhibition was inspected using the Lineweaver-Burk plots and the enzyme inhibition models. […]"}, "CYP2C19": {"target": "T2, CYP2C19 (Homo sapiens, UniProt P33261)", "T2 construct": "Pooled HLMs were purchased from BD Biosciences Discovery Labware; tissue BD Biosciences Discovery Labware; host or cells: pooled human liver microsomes", "T2 sequence (P33261 whole entry)": "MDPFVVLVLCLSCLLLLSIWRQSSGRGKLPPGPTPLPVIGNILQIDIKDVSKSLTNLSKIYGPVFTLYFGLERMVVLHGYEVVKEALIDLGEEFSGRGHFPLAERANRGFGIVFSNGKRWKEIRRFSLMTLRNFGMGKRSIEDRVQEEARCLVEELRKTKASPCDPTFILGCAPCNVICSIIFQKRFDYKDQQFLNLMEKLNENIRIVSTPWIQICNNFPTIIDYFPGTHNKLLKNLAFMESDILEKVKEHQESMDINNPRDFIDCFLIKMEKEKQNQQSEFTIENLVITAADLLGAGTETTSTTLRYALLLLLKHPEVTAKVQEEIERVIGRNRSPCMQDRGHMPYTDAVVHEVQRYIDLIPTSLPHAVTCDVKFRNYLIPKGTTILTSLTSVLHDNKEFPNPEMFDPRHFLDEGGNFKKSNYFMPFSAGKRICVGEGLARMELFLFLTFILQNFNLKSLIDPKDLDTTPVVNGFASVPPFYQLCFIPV", "test": "CYP2C19 inhibition in pooled human liver microsomes (S-mephenytoin 4-hydroxylation)", "details": "for inhibition model of CYP2C19: Lineweaver-Burk plots", "experimental": "as §1, §2\n(§4) The concentration of lysionotin was 100 μM, and the positive inhibitor concentrations were as follows: 10 μM furafylline for CYP1A2, 1 μM ketoconazole for CYP3A4, 10 μM tranylcypromine for CYP2A6, 50 μM clomethiazole for CYP2E1, 10 μM quinidine for CYP2D6, 10 μM sulfaphenazole for CYP2C9, 50 μM tranylcypromine for CYP2C19, 5 μM montelukast for CYP2C8. Probe substrates, positive inhibitors (except for dextromethorphan and quinidine, which were dissolved in water), and lysionotin were dissolved in methanol, with a final concentration of 1% (v/v), and 1% neat methanol was added to the incubations without inhibitor. There was a 3 min preincubation period (at 37 °C) before the reaction was initiated by adding an NADPH-generating system. The reaction was terminated by adding a 100 μL acetonitrile (10% trichloroacetic acid for CYP2A6) internal standard mix, and the solution was placed on ice. The mixture was centrifuged at 12,000 rpm for 10 min, and an aliquot (50 μL) of supernatant was transferred for HPLC analysis. The instrument used in this study was Agilent 1260 series instrument with DAD and FLD detector, and the quantitative assay for the corresponding metabolites was performed as previously reported and the detection conditions are summarised in Table 2 (He et al. [2015]; Lang et al. [2017]; Zhang et al. [2017]). […]\nas §3"}, "CYP2C8": {"target": "T3, CYP2C8 (Homo sapiens, UniProt P10632)", "T3 construct": "Pooled HLMs were purchased from BD Biosciences Discovery Labware; tissue BD Biosciences Discovery Labware; host or cells: pooled human liver microsomes", "T3 sequence (P10632 1-490)": "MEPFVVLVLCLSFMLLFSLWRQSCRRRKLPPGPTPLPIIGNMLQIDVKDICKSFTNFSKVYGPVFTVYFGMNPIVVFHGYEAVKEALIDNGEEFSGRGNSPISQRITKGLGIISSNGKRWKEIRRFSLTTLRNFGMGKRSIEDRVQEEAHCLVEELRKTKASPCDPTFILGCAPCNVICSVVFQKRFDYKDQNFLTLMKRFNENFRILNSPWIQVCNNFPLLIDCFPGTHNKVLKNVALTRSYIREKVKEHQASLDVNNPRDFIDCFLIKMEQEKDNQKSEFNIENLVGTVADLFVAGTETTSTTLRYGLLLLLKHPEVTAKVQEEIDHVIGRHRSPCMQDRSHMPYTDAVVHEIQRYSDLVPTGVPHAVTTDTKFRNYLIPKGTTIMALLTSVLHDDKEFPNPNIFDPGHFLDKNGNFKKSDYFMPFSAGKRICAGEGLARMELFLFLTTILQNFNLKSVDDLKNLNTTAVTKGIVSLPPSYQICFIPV", "test": "CYP2C8 inhibition in pooled human liver microsomes (paclitaxel 6α-hydroxylation)", "details": "for inhibition model of CYP2C8: Lineweaver-Burk plots", "experimental": "as §1, §2, §4, §3"}},
  "data": [
    {"smiles": "COc1ccc(-c2cc(=O)c3c(O)c(OC)c(O)c(OC)c3o2)cc1", "note": "[lysionotin, Lysionotin]", "values": [
      {"measurement": "activity of CYP3A4 decreased by", "setting": "CYP3A4; 100 μM lysionotin, pooled HLMs", "value": 86.33, "unit": "%"},
      {"measurement": "inhibition model of CYP3A4", "setting": "CYP3A4; Lineweaver-Burk plots", "value": "non-competitive"},
      {"measurement": "Ki", "setting": "CYP3A4; non-competitive model, testosterone 20–100 μM, pooled HLM", "value": 6.83, "unit": "µM"},
      {"measurement": "IC50", "setting": "CYP3A4; pooled HLMs, testosterone 6β-hydroxylation", "value": 13.8, "unit": "µM"},
      {"measurement": "activity of CYP2C19 decreased by", "setting": "CYP2C19; 100 μM lysionotin, pooled HLMs", "value": 74.86, "unit": "%"},
      {"measurement": "inhibition model of CYP2C19", "setting": "CYP2C19", "value": "competitively"},
      {"measurement": "inhibition model of CYP2C19", "setting": "CYP2C19; listed as Lysionotin", "value": "competitive"},
      {"measurement": "Ki", "setting": "CYP2C19; competitive model, mephenytoin 50–200 μM, lysionotin 0–50 μM, pooled HLM", "value": 12.4, "unit": "µM"},
      {"measurement": "IC50", "setting": "CYP2C19; pooled HLMs, S-mephenytoin 4-hydroxylation", "value": 25, "unit": "µM"},
      {"measurement": "activity of CYP2C8 decreased by", "setting": "CYP2C8; 100 μM lysionotin, pooled HLMs", "value": 67.22, "unit": "%"},
      {"measurement": "inhibition model of CYP2C8", "setting": "CYP2C8", "value": "competitively"},
      {"measurement": "inhibition model of CYP2C8", "setting": "CYP2C8; listed as Lysionotin", "value": "competitive"},
      {"measurement": "Ki", "setting": "CYP2C8; competitive model, paclitaxel 5–20 μM, lysionotin 0–50 μM, pooled HLM", "value": 14.5, "unit": "µM"}
    ]}
  ]
}
